Results on 1 compound are retold here after patent US9289444B2, “Composition for promoting hematogenesis containing quercetin 3-O-β-(2″-galloyl)-rhamnopyranoside as active ingredient” (Chungbuk National University Industry Academic Cooperation …, priority 2011, dated 2016).

For data set [1], the system named is bone marrow failure mouse induced by busulphan (BU). The experiment in a line: Flow cytometric analysis of bone marrow cells in BU bone marrow failure model. It is filed as in vivo, Balb/c mice. Here is the method: (§1) Bone marrow failure model induced by administering busulphan (BU) was designed according to the procedures previously described by Molyneux et al (Cell Biol Toxicol 27, 13-40, 2011) and the scheme is shown in FIG. 8. BU (Sigma chemicals, Poole, Dorset, UK) was dissolved in acetone to a final concentration of 18.8 mg/ml, diluted five-fold with distilled water, and was intraperitoneally administered three times for 5 days with the dose of 0.2 ml BU solution per mouse. Equal amount of five-fold diluted acetone solution without BU was administered to vehicle control group. QGR was dissolved in dimethylsulfoxide and diluted with distilled water to a final concentration of 1.25%. Mice were orally administered every two days with QGR (0.25 mg/mouse) for 63 days. Seven or eight mice were sacrificed on days of 1, 5, 10, 16, 25, 40, 49, and 63 after BU administration and were investigated to confirm the effect of QGR to recover bone marrow failure.
In order to investigate whether QGR has an activity to recover bone marrow failure induced by BU administration, the expression of markers associated with hematopoietic stem cells/progenitors (Sca-1^+ or c-kit^+), bone mesenchymal stem/progenitor cells (Sca-1^+CD44^+), apoptotic hematopoietic stem cells (c-Kit^+7-aminoactinomycin D^+) were measured by flow cytometry. The retrieved BMNCs with the concentration of 0.6×10^6 cells/ml were precipitated by centrifugation, re-suspended in 100 μl of PBS containing 0.02% sodium azide and 2% FBS, and incubated with 10 μl of mouse anti-CD16/CD32 Ab (eBioScience, San Diego, Calif., USA) as FC receptor blocker for 3 min at room temperature. After that, monoclonal antibodies for c-kit (2B8, BD Pharmingen, USA), Sca-1 (D7, eBioscience), CD44 (IM7, eBioscience) were added and further incubated for 30 min under the temperature of 4° C. Isotype-matched irrelevant rat IgG2b-FITC (eBioscience) and isotype-matched irrelevant rat IgG2a-PE (eBioscience) were used as negative control. The flow cytometric analysis was carried out using FACS Calibur (Becton Dickinson, Oxnard, Calif., USA) and the percentage of positively stained cells was determined. The double staining of c-kit and 7-AAD (Calbiochem-Novabiochem, Nottingham, UK) was carried out according to the procedures previously described by Philpott et al (Exp Hematol, 23, 1642-1648, 1995).
(In general: In flow cytometry, cells or beads pass a laser one at a time.)

Data set [2] deals with BMNCs. The experiment in a line: Cell viability assay (CCK-8), normoxia or hypoxia. It counts as cell-based, mouse. From the text: Bone marrow mononuclear cells (BMNCs) were isolated from femurs and tibias of 8 to 12-week-old male C57BL/6 mice by a previously described protocol [Kroeger K, Collins M, Ugozzoli (2009) The preparation of primary hematopoietic cell cultures from murine bone marrow for electroporation. J. Vis. Exp. 23: pii:1026. doi:10.3791/1026] and were separated from dead cells and red blood cells (RBCs) by Histopaque ([…]) (Sigma-Aldrich Chemical, St. Louis, Mo., USA) density gradient centrifugation. Thereafter, the cells were cultured in Iscove's modified Dulbecco's media (IMDM) with 15% heat inactivated fetal bovine serum (FBS), 1% bovine serum albumin (BSA), 100 units/ml penicillin and 100 μg/ml streptomycin at 37° C. in 5% CO2 humidified air. The separated blood was cultured as described previously [Oswald J, et al. (2004). Mesenchymal stem cells can be differentiated into endothelial cells in vitro. Stem Cells, 22: 377-384.] to obtain bone marrow stromal cells in α-minimum essential medium (MEM) with 20% heat inactivated FBS, 100 units/ml penicillin and 100 μg/ml streptomycin at 37° C. in 5% CO2 humidified air.
The possible cytotoxicity of QGR was examined in BMNCs. The cells were plated with a density of 5×10^3 cells/well in 96 well plates in 200 μl of medium. The cells cultured for 24 hrs with variable concentrations of QGR in either normoxia or hypoxia conditions were evaluated using a cell counting-8 assay kit (CCK-8) according to the manufacturer's instructions (Dojindo Molecular Technologies, Rockville, Md., USA). Briefly, 20 μl of CCK-8 solution was added to each well. The plates were incubated for 2 hrs in an incubator at 37° C. The resulting color was assayed at 450 nm using an EL808 microplate absorbance reader (BIO-TEK, Winooski, Vt., USA).

Data set [3] has as its system bone marrow failure mouse induced by busulphan (BU). The experiment in a line: Histopathological features of bone marrow and osteoid formation in BU bone marrow failure model. It counts as in vivo, Balb/c mice. The procedure: as §1
In order to confirm histological bone marrow damage induced by BU administration and to investigate whether QGR recovers the damaged bone marrow, histopathological features of H&E staining slide of the respective group's bone marrow were observed and compared to each other among the groups. In addition, the degree of sinusoid damage in bone marrow was graded as normal, hemorrhage or discontinuous, regressed vessel, assigned with numerical value and compared to each other among the groups. Moreover, in order to investigate the effect of QGR on the differentiation and maturation from mesenchymal stem cells to osteoblast, the formation of osteoid in humerus was comparatively analyzed. Goldner's trichrome staining was carried for osteoid and the stained area of the respective group was compared with each other after determining the stained area by using an image analyzer.

The subject of data set [4] is BMNCs. The experiment in a line: Histochemistry (Wright-Giemsa) and immunocytochemistry for erythroid cells (TER-119). It is filed as cell-based, mouse. The conditions noted are these: 7 days culture. Here is the method: In order to investigate whether QGR can stimulate the differentiation of hematopoietic stem cells into erythroid cells, the morphology of cells was observed and immunocytochemistry against TER-119, the marker of erythroid progenitors, was carried out. BMNCs were harvested 7 days after incubation with either rEpo (3 units/ml) or QGR (100 or 200 μM/ml) washed with PBS, re-suspended at a concentration of 2×10^5 cells/ml in PBS and subjected (100 μl/slide) to cytospin for 5 min at 1,000 rpm (Cytospin3; Shandon, ThermoElectron, Waltham, Mass., USA). All slides were fixed using cold methanol. Wright-Giemsa stain was performed for morphologic analysis. Immunocytochemistry against TER-119 was carried out for cellular lineage with 100-fold dilution according to the manufacturer's instruction using avidin biotinylated enzyme complex kit (VECTASTAIN, Vector Laboratories and Burlingame, Calif., USA).

In data set [5] the test system is lipopolysaccharide (LPS)-stimulated RAW 264.7 macrophage cells. The following applies: cited from earlier work.
For data set [6], the system named is unopsonized zymosan-stimulated human monocytes. The conditions noted are these: cited from earlier work.

With `CC1OC(Oc2c(-c3ccc(O)c(O)c3)oc3cc(O)cc(O)c3c2=O)C(OC(=O)c2cc(O)c(O)c(O)c2)C(O)C1O` (stereo not drawn) [QGR, quercetin 3-O-β-(2″-galloyl)-rhamnopyranoside], the “number of cells positive for Sca-1 (HSPCs)” value in data set [1] (after 10 days of QGR administration, vs positive control group) is “increased”. Also, the “number of c-kit positive cells (HSPCs)” value in data set [1] (at 10 days after QGR administration, significant difference from positive control at 16 days) was “increased”. In data set [1] (time course, remarkably decreased in positive control group), the “number of MSPCs (CD44+Sca-1+ cells)” value is reported as “no change”. For the same compound, in data set [1] (time course, significantly increased from 10 days in positive control group), the “number of apoptotic HSPCs” value is “no change”. The cell viability entry in the data set on BMNCs [2] (50 μM, 24 hrs) is on record as “significantly increased cell viability”. Moreover, in the data set on BMNCs [2] (BMNCs, 24 hrs, various concentrations), the cytotoxicity entry was “not cytotoxic”. Further, the “cell viability after hypoxic damage” value in the data set on BMNCs [2] (QGR post-treatment 200 μM, hypoxic damage for 24 hrs) is “increased cell viability”. Besides, the “viable cells under hypoxic damage” value in the data set with BMNCs [2] (QGR pretreatment, hypoxic damage 24 hrs, vs untreated group, dose-dependent) is “increased the viable cells”. The “degree of osteoid formation” value in data set [3] (Goldner's trichrome staining, vs positive control group) is given as “actively formed”. Besides, in data set [3] (H&E, vs positive control group), the “number of cells in bone marrow of humerus (cellularity)” value was “recovered”. In addition, the “number of regressed sinusoid” value in data set [3] (day 10) is recorded as “significantly decreased”. The “number of normal sinusoid” value in data set [3] (day 10, vs positive control group (BU)) is listed as “greater”. In addition, in data set [3] (day 63), the “number of normal sinusoids” value is reported as “increased”, the “numbers of hemorrhagic sinusoids” value is “significantly decreased” and the “numbers of regressed sinusoids” value was “significantly decreased”. Besides, the “area of osteoid formation” value in data set [3] (from day 10 after QGR administration, vs positive control group) is reported as “increased significantly”. For the same compound, in data set [3] (from day 16 after QGR administration, vs positive control group), the “number of megakaryocytes surrounding sinusoid” value is on record as “increased”. Further, the “sinusoidal endothelia in the bone marrow” value in data set [3] (vs severely damaged sinusoids in positive control group) is given as “recovered sinosoids”. Further, the “number of enucleated erythroid cells” value in the data set with BMNCs [4] (Wright-Giemsa staining) is listed as “increased”. In addition, the “TER-119+ cells (immunocytochemical analysis)” value in the data set with BMNCs [4] (vs negative control) is reported as “increased”. In addition, the nitric oxide production entry in data set [5] was “inhibiting”. Moreover, the superoxide production entry in data set [6] is on record as “inhibiting”.
